# Measurements reported in paper PMC5537696 (2017).
# How the values were obtained:
# [1] = test system: SLA (short loop ATP hairpin aptamer) (DNA, aptamer, PEG6 spacer between 29 and 30) CACCTGGGGGAGTATTGCGGAGGAAGGTTCCAGGTG; test: surface plasmon field-enhanced fluorescence titration, Langmuir isotherm; conditions: 6 mM MgCl2, 10 mM Tris pH 7.4 (HAB)
# [2] = test system: LLA (long loop ATP hairpin aptamer) (DNA, aptamer) CACCTGGGGGAGTATTGCGGAGGAAGGTTTTTTTTTTTTTTTTTTTTTTTTTTTTTTTTCCAGGTGTT; test: as above; conditions: 6 mM MgCl2, 10 mM Tris pH 7.4 (HAB)
# [3] = test system: LLA (long loop ATP hairpin aptamer) (DNA, aptamer) CACCTGGGGGAGTATTGCGGAGGAAGGTTTTTTTTTTTTTTTTTTTTTTTTTTTTTTTTCCAGGTGTT; test: surface plasmon field-enhanced fluorescence titration; conditions: 6 mM MgCl2; 10 mM Tris pH 7.4 (HAB); aptamer immobilised on gold; up to 12 mM guanosine
# [4] = aptamer immobilised, fit limited to ATP ≤2 mM, full curve deviates from Langmuir
structure (smiles),measurement,setting,value
Nc1ncnc2c1ncn2[C@@H]1O[C@H](COP(=O)(O)OP(=O)(O)OP(=O)(O)O)[C@@H](O)[C@H]1O,Kd,[1]; [4],300 µM
same,Kd,[2]; [4],120 µM
Nc1nc2c(ncn2[C@@H]2O[C@H](CO)[C@@H](O)[C@H]2O)c(=O)[nH]1,binding,[3],no
Nc1ncnc2c1ncn2[C@@H]1O[C@H](CO)[C@@H](O)[C@H]1O,Kd,[1]; aptamer immobilised on gold,90 µM
same,Kd,[2]; aptamer immobilised on gold,50 µM
